Source: PMC7114241 (Antiviral Research, 2011)

Target: SARS-CoV M^pro (Severe acute respiratory syndrome coronavirus, UniProt P0C6X7)
Assay type: biochemical

Dabcyl-KTSAVLQ↓SGFRKME-Edans amide
apparent k cat/K m: 2359 M^−1·19 s^−1 | k cat/K m: 7863 M⁻¹ s⁻¹ | K m (pH 7.3): 24.5 µM
